This note sets out measurements from patent US20230220105A1, “TUMOR ACTIVATED T CELL ENGAGERS AND METHODS OF USE THEREOF” (Janux Therapeutics, Inc., priority 2019, published 2023).

One assay has as its target neutravidin alone (Gallus gallus, UniProt P02701). Description: Phagemid ELISA, neutravidin background. The format is binding. The settings on record: clonal phage displaying the peptide; ELISA signal on neutravidin alone. On the procedure:
The next day the deep well plates were centrifuged to separate the soluble phagemid from the E. coli cells. The phagemid containing supernatants were then combined with PBS-Tween 20 (0.05%) + BSA (1%) blocking buffer and incubated in ELISA wells containing Neutravidin captured biotin-conjugated target or Neutravidin alone. After binding at 4 degrees the plates were washed, and specifically bound phage were detected by anti-m13 HRP conjugated antibodies using standard TMB-based chromogenic ELISA procedures. Daughter plates or individual wells were subjected to standard DNA sequencing for clonal peptide sequence identification.
The next day the deep well plates were centrifuged to separate the soluble phagemid from the E. coli cells. The phagemid containing supernatants were then combined with PBS-Tween 20 (0.05%) + BSA (1%) pH neutral blocking buffer and incubated in previously TCR coated and blocked wells. After binding at 4° C. the plates were washed and specifically bound phage were detected by anti-m13 HRP conjugated antibodies using standard TMB-based chromogenic ELISA procedures (FIG. 17B). Daughter plates or individual wells were subjected to standard DNA sequencing for peptide identification.
For orientation: An ELISA detects its analyte on a solid surface through an enzyme-linked reagent.

Assay [1] concerns the target TCR-1 binding to MAGE-A3 pMHC. As to the kind of experiment: Inhibition of equilibrium binding of TCR to its cognate pMHC (ELISA).
Procedure: Inhibition of TCR binding to its cognate pMHC was also measured in an ELISA format. Biotinylated pMHC was captured on neutravidin coated plates, quenched using excess biocytin, and washed. Inhibitory peptide was titrated in a half-log dilution series starting from 100 uM and pre-incubated with a constant concentration of 1 nM TCR. Inhibitory peptide and TCR mixtures were then incubated on the pMHC captured plates. A secondary HRP antibody conjugate that recognized the histag of the TCR was then used to detect the plate bound TCR. […] Dose dependent decrease of signal was indicative of peptides that compete for TCR binding to its cognate pMHC.
In assay [2] the test system is MAGE-A3 TCR (TCR-1). Description: Kinetic binding of TCR to peptides (Octet BLI). The settings on record: Table 3; Ala mutants of Peptide-5 and controls. On the procedure:
BLI based kinetic binding of TCR to peptides was measured using a ForteBio Octet RED96 instrument. Biotinylated peptides were first directly captured on streptavidin biosensors. Sensors were quenched using excess biocytin and then baselined in buffer. A dilution series of TCR was made and associated onto the peptide loaded biosensor. Association and dissociation signals were monitored in real-time. Signals were fit to a 1:1 binding model in order to derive binding constants, kon and koff, as well as KD.
For orientation: In BLI a coated tip is dipped into the sample, and binding shifts an interference pattern.

The subject of assay [3] is TCR-1 binding to MAGE-A3 pMHC. As to the kind of experiment: Inhibition of kinetic binding of TCR to its cognate pMHC (BLI). The settings on record: Table 3.
Procedure: First, biotinylated pMHC was captured on streptavidin biosensors. Sensors were quenched using excess biocytin and then baselined in buffer. Inhibitory peptide was titrated in a two fold dilution series starting from 100 uM and pre-incubated with a constant concentration of 50 nM TCR. Peptide and TCR mixtures were then associated onto the pMHC loaded biosensor. Zero concentration of inhibitory peptide or zero concentration of TCR were used as controls. Association and dissociation signals were monitored in real-time. The maximal association signal was normalized from 100% (0 uM inhibitory peptide control) to 0% (0 nM TCR control) and plotted versus log-scale inhibitory peptide concentration.
A further assay concerns TCR-1. Description: Inhibitory peptide specificity evaluation (BLI). It is filed as binding. The settings on record: 100 uM TCR on Peptide-5 saturated biosensor. On the procedure:
(§1) Potent inhibitory peptides were tested for TCR specific binding. […] This family of TCRs differ in sequence by point mutations in the CDR domains know to contribute to binding affinity and specificity for cognate MAGE-A3 pMHC. […] TCRs were associated at the extreme concentration of 100 uM onto the inhibitory peptide loaded biosensor. In parallel, 100 uM TCRs were associated on a blank control sensor to establish background signal related to non-specific binding of the TCRs. Association and dissociation signals were monitored in real-time.

In the next assay the test system is TCR-3. Description: Inhibitory peptide specificity evaluation (BLI). The following applies: 100 uM TCR on Peptide-5 saturated biosensor. The format is binding. On the procedure:
as §1

The next assay relates to TCR-2. Description: Inhibitory peptide specificity evaluation (BLI). The format is binding. The settings on record: 100 uM TCR on Peptide-5 saturated biosensor. On the procedure: as §1
The next assay has as its system TCR-4. As to the kind of experiment: Inhibitory peptide specificity evaluation (BLI). The format is binding. The following applies: 100 uM TCR on Peptide-5 saturated biosensor. On the procedure: as §1
For assay [4], the target named is MAGE-A3 TCR (TCR-1). As to the kind of experiment: Equilibrium binding of TCR to peptides (ELISA). The settings on record: Table 3.
Procedure: Peptide binding was also examined in an ELISA format. Biotinylated peptides were captured on neutravidin coated plates. TCR was then prepared in a half-log dilution series starting from 10 uM and titrated onto the peptide captured plates. […] The concentration of TCR required to observe half maximal binding signal (EC50) was then calculated using Graphpad Prism.

Chain of neutravidin alone (P02701 25-152): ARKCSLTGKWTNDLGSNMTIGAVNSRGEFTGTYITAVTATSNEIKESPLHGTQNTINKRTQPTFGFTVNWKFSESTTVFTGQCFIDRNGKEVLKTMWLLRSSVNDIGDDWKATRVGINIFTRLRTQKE

`CC(C)[C@H](NC(=O)[C@@H]1CSSC[C@H](NC(=O)CNC(=O)CNC(=O)CN)C(=O)N[C@@H](Cc2ccccc2)C(=O)N[C@@H](C(C)C)C(=O)N[C@@H](CO)C(=O)N2CCC[C@H]2C(=O)N[C@@H](C)C(=O)N[C@@H]([C@@H](C)O)C(=O)NCC(=O)N[C@@H](Cc2ccccc2)C(=O)N[C@@H]([C@@H](C)O)C(=O)N[C@@H](Cc2c[nH]c3ccccc23)C(=O)N1)C(=O)NCC(=O)NCC(=O)NCC(=O)NCC(=O)N[C@@H](CO)C(=O)NCCOCCOCCOCCOCCC(=O)N[C@@H](CCCCNC(=O)CCCC[C@@H]1SC[C@@H]2NC(=O)N[C@@H]21)C(N)=O` [Peptide-17]: the “Phage ELISA NAv bkgd” value on neutravidin alone is 0.13.
`CC(C)[C@H](NC(=O)CNC(=O)CN)C(=O)N[C@@H](CO)C(=O)N[C@H]1CSSC[C@@H](C(=O)N[C@@H](Cc2c[nH]c3ccccc23)C(=O)N[C@H](C(=O)NCC(=O)NCC(=O)NCC(=O)NCC(=O)N[C@@H](CO)C(=O)NCCOCCOCCOCCOCCC(=O)N[C@@H](CCCCNC(=O)CCCC[C@@H]2SC[C@@H]3NC(=O)N[C@@H]32)C(N)=O)[C@@H](C)O)NC(=O)[C@H](Cc2ccccc2)NC(=O)[C@H](C)NC(=O)[C@H](CCC(=O)O)NC(=O)[C@H](CC(=O)O)NC(=O)[C@H](Cc2ccc(O)cc2)NC(=O)[C@H](C(C)C)NC(=O)[C@H](CC(=O)O)NC(=O)[C@H](CCCCN)NC1=O` [Peptide-5]: the IC50 in [1] (Table 2, 1 nM TCR) was 0.6 µM; in assay [1] (Table 3) it was 0.6 µM. The “Octet BLI Binds TCR” value with MAGE-A3 TCR (TCR-1) [2] is on record as “Yes”. The “Octet BLI Competes at 100 uM” value in assay [3] is on record as “Yes”. The “binding of Peptide-5 to TCR-1” value in the assay on TCR-1 is on record as “readily bound”. In addition, the “binding of Peptide-5 to TCR-3” value in the assay with TCR-3 was “signal was identical to that of background”. Moreover, the “binding of Peptide-5 to TCR-2” value in the assay on TCR-2 was “signal was identical to that of background”. In the assay on TCR-4, the “binding of Peptide-5 to TCR-4” value is given as “signal was identical to that of background”.
As for `CC(C)[C@H](NC(=O)CNC(=O)CN)C(=O)N[C@@H](CO)C(=O)N[C@@H](C)C(=O)N[C@@H](CCCCN)C(=O)N[C@@H](CC(=O)O)C(=O)N[C@H](C(=O)N[C@@H](Cc1ccc(O)cc1)C(=O)N[C@@H](CC(=O)O)C(=O)N[C@@H](CCC(=O)O)C(=O)N[C@@H](C)C(=O)N[C@@H](Cc1ccccc1)C(=O)N[C@@H](CS)C(=O)N[C@@H](Cc1c[nH]c2ccccc12)C(=O)N[C@H](C(=O)NCC(=O)NCC(=O)NCC(=O)NCC(=O)N[C@@H](CO)C(=O)NCCOCCOCCOCCOCCC(=O)N[C@@H](CCCCNC(=O)CCCC[C@@H]1SC[C@@H]2NC(=O)N[C@@H]21)C(N)=O)[C@@H](C)O)C(C)C` [Peptide-23], in the assay with MAGE-A3 TCR (TCR-1) [2], the “Octet BLI Binds TCR” value was “Yes”. In addition, the “Octet BLI Competes at 100 uM” value in [3] is on record as “Yes”. Besides, the half-maximal effective concentration (EC50) on MAGE-A3 TCR (TCR-1) [4] was greater than 10 µM.

What is called IC50 is the concentration at which inhibition is half-maximal. The low end stands for higher potency, the high end for lower potency. What is called EC50 is the midpoint of the concentration-response curve. A low value points to an effect from little substance.
